Assay results taken from patent US20090221056A1, “Pathogen-Detecting Cell Preservation Systems” (priority 2005, published 2009).
“Also recorded” adds a separate entry of the source. The star is where a group is joined. Cbz = O=C(OCc1ccccc1)*; CH2F = FC*

Tests used:
CANARY cells = assay: Toxicity of chemical additives to CANARY cells; conditions: at 50 μM
CANARY B cells = assay: Viability of CANARY cells after storage with chemical additives; assay type: cell-based; conditions: storage at room temperature (1-3 weeks), compared to cells without additive
[1] = system: CANARY B cells (expressing a receptor specific for Yersinia pestis); assay type: cell-based

Cbz-LEHD-CH2F was tested, and the toxicity of additive (CANARY cells) was “toxic”.

In the case of tunicamycin, the “viability of cells stored at room temperature” value (CANARY B cells) is reported as “improved both viability and activity”, the “viability of cells stored at room temperature” value (CANARY B cells; listed as Tunicamycin) is reported as “increases both cell viability and activity” and the “activity (antigen detection) of cells stored at room temperature” value [1] is reported as “increases both cell viability and activity; also recorded: retained detection sensitivity for Yersinia pestis; also recorded: improved both viability and activity”. The “beneficial effect on stored cells (viability and/or activity)” value [1] was “beneficial effects” and the “benefit of treatment to stored cells” value [1] was “detrimental”.

In the case of Cbz-WEHD-CH2F, the toxicity of additive (CANARY cells) is reported as “toxic”.
